Patent US10232021B2, “Calcitonin mimetics for treating diseases and disorders” (KEYBIOSCIENCE AG, priority 2013, dated 2019)
Bridges are numbered along the chain shown (N, C = ends).

What was measured:
[1] = Single-dose food intake in obese High-Fat-Diet rats; format: in vivo; conditions: single subcutaneous dose 1.25, 2.5, 5 μg/kg; obese rats fasted overnight
Method: Rats were fed a High-Fat-Diet for 14 weeks prior to the experiment to induce obesity.
Further similar studies were undertaken over different time periods and with different peptides and the results are seen in FIG. 10 and FIGS. 11A-11B. The ability of KBP089 to suppress food intake over 72 hours was compared to that of KBP042 as control and the results are seen in FIG. 10.

[2] = Three-week treatment of ZDF rats: fasting plasma glucose and HbA1c; format: in vivo, male ZDF (fa/fa) rats; conditions: 5 μg/kg/day subcutaneously once daily, 3 weeks
Method: To assess the effects of the peptides in relation to regulation of blood glucose levels, male ZDF rats, which are the gold standard model of Type 2 Diabetes were treated for 3 weeks with the 3 most promising KBPs (023, 056 and 088) and an active comparator (UGP302/KBP-042). Male ZDF (fa/fa) rats were obtained at the age of 7 weeks from Charles River Laboratories (Kisslegg, Deutschland). All animals were housed at the animal facility at Nordic Bioscience with a constant temperature (21-23° C.) and relative humidity (55-65%) on a 12 h light/dark cycle with free access to Purina 5008 rat chow (Brogaarden, Lynge, Denmark) and tap water. At the age of 8 weeks, the animals were randomized into five groups of 8 rats each based upon fasting blood glucose and body weight (Vehicle (saline), UGP302/KBP-042 5 μg/kg/day, KBP-023 5 μg/kg/day, KBP-056 5 μg/kg/day and KBP-088 5 μg/kg/day) and dosing was done subcutaneously once daily. The animals were treated for a total of 3 weeks to assess the effect of the peptides on fasting blood glucose. Blood glucose was monitored using the Accu-Check® Avia monitoring system (Roche Diagnostics, Rotkreuz, Switzerland) and HbA1c levels by the DCA Vantage™ Analyzer (Siemens Healthcare Diagnostics, Deerfield, Ill.).

[3] = molecular target: T1, Amylin Receptor (AMY-R) (Homo sapiens, UniProt P30988); test: PathHunter β-arrestin assay on the amylin receptor; format: cell-based; conditions: CHO-K1 CALCR+RAMP3 cells
T1 construct: host or cells: CHO-K1
T1 sequence (P30988 25-474): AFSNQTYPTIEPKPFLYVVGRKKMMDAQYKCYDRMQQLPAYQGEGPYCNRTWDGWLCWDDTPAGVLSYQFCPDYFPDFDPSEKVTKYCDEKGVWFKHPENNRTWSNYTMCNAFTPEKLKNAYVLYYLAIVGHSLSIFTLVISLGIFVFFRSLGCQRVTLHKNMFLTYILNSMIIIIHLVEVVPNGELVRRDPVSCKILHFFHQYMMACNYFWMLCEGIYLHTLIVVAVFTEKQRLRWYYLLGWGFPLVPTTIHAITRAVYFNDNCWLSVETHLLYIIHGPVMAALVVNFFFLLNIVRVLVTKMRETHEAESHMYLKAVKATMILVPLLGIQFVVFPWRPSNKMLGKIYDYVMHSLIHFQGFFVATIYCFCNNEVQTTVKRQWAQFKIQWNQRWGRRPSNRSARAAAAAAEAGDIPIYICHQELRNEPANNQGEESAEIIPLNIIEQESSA
T1 sequence (O60896 24-148 partner): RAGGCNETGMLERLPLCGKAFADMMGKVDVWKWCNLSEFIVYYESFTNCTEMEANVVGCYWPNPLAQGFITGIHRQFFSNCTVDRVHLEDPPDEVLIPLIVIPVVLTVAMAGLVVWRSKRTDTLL
Method: (§1) The following cell lines expressing the calcitonin, amylin and CGRP receptors were purchased and cultured according to the manufacturer's instructions. • 1. Calcitonin Receptor (CTR): U20S-CALCR from DiscoveRx (Cat. No.: 93-0566C3). • 2. Amylin Receptor (AMY-R): CHO-K1 CALCR+RAMP3 from DiscoveRx (Cat. No.: 93-0268C2). • 3. CGRP Receptor (CGRP-R): CHO-K1 CALCRL+RAMP1 from DiscoveRx (Cat. No.: 93-0269C2).
In independent bioassays, CTR, AMY-R and CGRP-R cells were treated with for the indicated timepoints with increasing doses of sCT, UGP-302/KBP-042 or the KBPs identified in Table 3 (0, 0.001, 0.01, 0.1, 1, 10, and 100 nM). […]
In this system, the GPCR is fused in frame with the small enzyme fragment ProLink™ and co-expressed in cells stably expressing a fusion protein of β-Arrestin and the larger, N-terminal deletion mutant of β-gal (called enzyme acceptor or EA). […] This interaction leads to an increase in enzyme activity that can be measured using chemiluminescent PathHunter® Detection Reagents.
The assay was performed in white 384 well plates (Greiner Bio-One, 784080). […] To quantify the GPCR-mediated β-arrestin recruitment the Pathhunter™ Detection Kit (93-0001, DiscoverX) was used and assay performed accordingly to the manufacturer's instructions.

[4] = molecular target: T2, Calcitonin Receptor (CTR) (Homo sapiens, UniProt P30988); test: Competitive ligand binding against 125I-sCT on CTR cells; conditions: U20S-CALCR cells; 0.1 nM 125I-sCT; 60 min, 37° C.
T2 construct: host or cells: U2OS
T2 sequence (P30988 25-474): T1 sequence (P30988 25-474)
Description: as §1
(§2) Corresponding to the beta-arrestin induction experiments, we performed competitive ligand binding experiments using the cells expressing the CTR and the AMY-R. In studying ligand binding on cells, 15.000 CTR or AMY-R cells were seeded in 96-well plate and cells were treated with 0.1 nM ^125I-conjugated sCT with or without the presence of unlabelled KBP in increasing doses for 60 min at 37° C. After incubation the supernatant was removed and cells were washed twice in 200 μl PBS. The cells were lysed using RIPA‡ buffer (30 mM M NaCl, 50 mM Tris-HCl, 5 mM EDTA, 1% Deoxycholic acid, […], Protease inhibitor tablet mini (1 tablet:10 ml)) and lysates as well were collected for measurement on a γ-counter.

[5] = molecular target: T1, Amylin Receptor (AMY-R); test: Competitive ligand binding against 125I-sCT on AMY-R cells; conditions: CHO-K1 CALCR+RAMP3 cells; 0.1 nM 125I-sCT; 60 min, 37° C.
Description: as §1, §2

KBP-088: SEQ ID NO: 12; AcCSNLSTCMLGRLSQELHRLQTFPKTDVGANAP-NH2, Cys1-Cys7 disulphide bridge (Ac-CSNLSTCMLGRLSQELHRLQTFPKTDVGANAP-NH2; disulfide 1-7; SMILES CSCC[C@H](NC(=O)[C@@H]1CSSC[C@H](NC(C)=O)C(=O)N[C@@H](CO)C(=O)N[C@@H](CC(N)=O)C(=O)N[C@@H](CC(C)C)C(=O)N[C@@H](CO)C(=O)N[C@@H]([C@@H](C)O)C(=O)N1)C(=O)N[C@@H](CC(C)C)C(=O)NCC(=O)N[C@@H](CCCNC(=N)N)C(=O)N[C@@H](CC(C)C)C(=O)N[C@@H](CO)C(=O)N[C@@H](CCC(N)=O)C(=O)N[C@@H](CCC(=O)O)C(=O)N[C@@H](CC(C)C)C(=O)N[C@@H](Cc1c[nH]cn1)C(=O)N[C@@H](CCCNC(=N)N)C(=O)N[C@@H](CC(C)C)C(=O)N[C@@H](CCC(N)=O)C(=O)N[C@H](C(=O)N[C@@H](Cc1ccccc1)C(=O)N1CCC[C@H]1C(=O)N[C@@H](CCCCN)C(=O)N[C@H](C(=O)N[C@@H](CC(=O)O)C(=O)N[C@H](C(=O)NCC(=O)N[C@@H](C)C(=O)N[C@@H](CC(N)=O)C(=O)N[C@@H](C)C(=O)N1CCC[C@H]1C(N)=O)C(C)C)[C@@H](C)O)[C@@H](C)O)
food intake, 0-4 hours [1]: led to a reduction in food intake
food intake, 4-24 hours [1]: the effect was maintained to 24 hours
food intake, 24-48 hours [1]: only KBP-089 led to a reduction in food intake
HbA1c [2]: highly active
fasting plasma glucose (FPG) [2]: highly active
activation of the AMY-R (β-arrestin dose-response) [3]: more potent that the classical AMY-R agonist sCT
competitive binding affinity on the CTR [4]: better than the other ligands
competitive binding affinity on the AMY-R [5]: better than the other ligands, particularly on the AMY-R
